# Measured values from PMC8315922, “In Vitro Identification and In Vivo Confirmation of Inhibitors for Sweet Potato Chlorotic Stunt Virus RNA Silencing Suppressor, a Viral RNase III” (Journal of Virology, 2021).
# pIC50: −log10 of the molar value. Where two headings read alike, the source gives them in different places.
# Assays:
# [1] = biological target: CSR3 (RNase III of SPCSV) (Sweet potato chlorotic stunt virus, UniProt Q8JJW8); test: Kinetic-based FRET dose-response assay (IC50, DSS); type: biochemical; details: for DSS Comm 1 / DSS FIMM1 / DSS FIMM 2: drug sensitivity score; for DSS Comm 1: repeat Comm 1; for DSS FIMM1: repeat FIMM 1; for DSS FIMM 2: repeat FIMM 2; for DSS / pIC50: kinetic-based HTS, Fig 5A summary; for IC50: 1.25 nM to 50 μM, unit inferred
# Procedure: A dose-response assay with six concentrations (1.25 nM to 50 μM) was carried out in three independent experiments, which included two tests with the 112 selected FIMM compounds (i.e., compounds prepared by the HTB-FIMM) and one test using the newly ordered commercial compounds (99 of the 112 compounds, i.e., compounds prepared by a second supplier). A dose-response curve was generated for each compound based on PI values as a function of the concentration.
# The HTS assay was designed based on FRET using a 22-bp siRNA (forward sequence, […]; reverse sequence, […]) with a 2-nucleotide (nt) 3′ overhang labeled with the fluorescent dye 6-carboxyfluorescein (FAM) and a black hole quencher (BHQ1) on the sense strand (Metabion, Munich, Germany). Screening was initially carried out at one concentration (10 μM) in a 20-μl reaction buffer. […] All reaction mixtures contained 50 nM CSR3 and 375 nM labeled siRNA in 384-well black flat-bottom microplates (Corning, NY, USA) and were prepared using a BioTek MultiFlo FX dispenser with single-channel random access dispenser cassettes (BioTek, Winooski, VT, USA). The plates were read with a PHERAstar FS reader (BMG Labtech, Ortenberg, Germany).
# (§1) For HTS, the activity of CSR3 was calculated by measuring the change in fluorescence as a function of the reaction time using MARS Data Analysis software (BMG Labtech). To evaluate the CSR3 inhibition efficiency of individual compounds, the PI of each compound was calculated using the slope values for the sample, positive control, and negative control according to the following equation: PI = 100 × [1 − (sample − positive)/(negative − positive)]%. IC50 and DSS values were calculated using concentration-specific PI values according to a previous study ([31]). Relative gene expression was calculated using the classical 2^−ΔΔ^CT method ([63]).
# CSR3 = biological target: T1, CSR3 (Sweet potato chlorotic stunt virus, UniProt Q8JJW8); test: Binding affinity assay using MST; details: for Binding (Yes/No): MST binding call; for Binding (Yes/No) / Response Amplitude: Table S4; for Response Amplitude: MST response amplitude; for Comments: MST behaviour of compound (V-shape response, fluorescence quenching, interference, aggregator)
# T1 sequence (Q8JJW8 1-228): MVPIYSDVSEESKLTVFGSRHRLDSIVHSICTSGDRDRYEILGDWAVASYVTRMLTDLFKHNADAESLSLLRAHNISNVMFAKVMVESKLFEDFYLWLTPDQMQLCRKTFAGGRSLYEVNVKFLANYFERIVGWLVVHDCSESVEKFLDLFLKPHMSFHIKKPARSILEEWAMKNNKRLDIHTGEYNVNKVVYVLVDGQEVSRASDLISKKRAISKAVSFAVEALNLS
# Procedure: Binding affinity assays were first carried out with the 99 commercial compounds using the MST method.
# The labeled-protein solution containing 500 nM proteins and 40 nM dye was prepared in PBS buffer with 2% dimethyl sulfoxide (DMSO) for the assay. The 12 concentrations for each compound were obtained by 2-fold serial dilutions (0.2 μM to 400 μM). […] Two independent experiments were carried out in premium coated capillaries (NanoTemper, Munich, Germany) using a Monolith NT.Automated instrument (NanoTemper) with the power set at high (80%), the light-emitting diode (LED) power (pico red) set at 5%, and the on-time set at 20 s. The dissociation constant (Kd) was determined using the MO.Affinity Analysis program (NanoTemper).
# SPFMV = test: Virus accumulation (RT-qPCR of coat protein RNA) in coinfected sweetpotato plants grown in culture medium: SPFMV; type: in vivo, Sweet potato feathery mottle virus; details: for SPFMV_FC (fold change of viral accumulation): 50 μM in culture medium, 28 days, relative to DMSO control; for SPFMV accumulation reduced / viral titer SPFMV (log2 fold change relative to controls): plants in culture medium, 50 μM
# Procedure: (§2) Since tests in culture medium consume smaller amounts of compounds and can be carried out under relatively controlled conditions, sweetpotato plants coinfected with SPCSV and SPFMV were grown in medium supplemented with one of the 30 inhibitor candidates at a concentration of 50 μM. Their effects on plant growth were monitored by imaging the plants once a week. […] In addition, virus accumulation was quantified by measuring the relative abundance of the transcripts encoding viral coat proteins using RT-qPCR ([32]). The effect of individual compounds on virus accumulation was estimated by comparing treated and control plants.
# (§3) Sweetpotato plants cultivar 'Huachano' (accession CIP420065) were side-graft inoculated with both SPFMV (East African strain isolate Nam1) and SPCSV-Ug (East African serotype 2) as described previously ([62]). Plantlets were propagated by taking single-node stems grown in a plant culture medium ([33]). Next, plantlets with newly formed roots were transferred to glass tubes (18 by 150 mm) containing 10 ml of medium supplemented with either 50 μM compound (diluted in DMSO; final DMSO concentration, 0.1%) or only 0.1% DMSO as a control. For plant experiments in soil, plantlets were transferred to pots (6 by 6 by 10 cm) filled with a mixture of sand, humus, and washed soil. After 1 week, plants were treated by foliar spraying using either individual compounds at a single concentration (10 μM) (treatment) or water (control/mock) twice a week for 1 month. All plants were grown at 22°C with 60% humidity and a 16-h light/8-h dark photoperiod for 28 days in culture medium and for 41 days in soil. The Finnish National Plant Phenotyping Infrastructure (NaPPI) was used to monitor plant viral disease symptoms as described in our previous study ([33]). Four compounds were tested with the phenotyping platform in two independent batches, each of which included five biological replicates.
# (§4) Leaf samples were collected from plants grown in culture medium or soil for 28 or 41 days, respectively, and frozen in liquid nitrogen. Total RNA was extracted using the Spectrum plant total RNA kit (Sigma-Aldrich). First-strand cDNA was synthesized using the Transcriptor first-strand cDNA synthesis kit (Roche, Basel, Switzerland). […] All RT-qPCR experiments were conducted in triplicate on three and five biological replicates from plants grown in culture medium and soil, respectively. The primer list can be found in our previous study ([33]).
# as §1
# SPCSV = test: Virus accumulation (RT-qPCR of coat protein RNA) in coinfected sweetpotato plants grown in culture medium: SPCSV; type: in vivo, Sweet potato chlorotic stunt virus; details: for SPCSV_FC (fold change of viral accumulation): 50 μM in culture medium, 28 days, relative to DMSO control; for SPCSV accumulation reduced / viral titer SPCSV (log2 fold change relative to controls): plants in culture medium, 50 μM
# Procedure: as §2, §3, §4, §1
# sweetpotato plants = details: 50 μM in culture medium
# [2] = read-out: IC50 Comm 1, repeat Comm 1 (commercial compounds), numbers match nM
# [3] = read-out: IC50 FIMM 2, repeat FIMM 2 (FIMM library compounds), numbers match nM
# [4] = repeat Comm 1 (commercial compounds), numbers match nM, read-out: IC50 Comm 1
# [5] = repeat FIMM 1 (FIMM library compounds), numbers match nM (cf. Fig 5A), read-out: IC50 FIMM1
# [6] = repeat FIMM 2 (FIMM library compounds), numbers match nM, read-out: IC50 FIMM 2
Structure (SMILES),DSS Comm 1 [1],DSS FIMM1 [1],DSS FIMM 2 [1],DSS [1],pIC50 [1],"IC50 [1, 2] [nM]","IC50 [1, 3] [nM]",Binding (Yes/No) (CSR3),Response Amplitude (CSR3),SPFMV_FC (fold change of viral accumulation) (SPFMV),SPFMV accumulation reduced (SPFMV) [fold],viral titer SPFMV (log2 fold change relative to controls) (SPFMV),SPCSV_FC (fold change of viral accumulation) (SPCSV),SPCSV accumulation reduced (SPCSV),viral titer SPCSV (log2 fold change relative to controls) (SPCSV),Toxicity (sweetpotato plants),"IC50 [1, 4] [nM]","IC50 [1, 5] [nM]","IC50 [1, 6] [nM]",Comments (CSR3)
Cc1ccc(C2Nc3ccc(C(=O)O)cc3C3C=CCC32)cc1 (centres unmarked) [FIMM031755],7.7,15.9,16.2,15.9,~5.90,7380,1240,No,0,0.5653,~2,−0.82,0.5163,~2 fold,−0.95,no,–,–,–,–
COc1cc(C=C2C(=O)NC(=S)NC2=O)ccc1OCc1ccccc1[N+](=O)[O-] [FIMM101864],6.4,11.2,8,–,–,–,–,No,0,1.376,–,–,0.5034,–,–,–,1690,3850,7240,Aggregator
O=C1c2c(O)ccc(O)c2C(=O)c2c(NCCNCCO)ccc(NCCNCCO)c21 [FIMM000490],16.9,14.9,15.5,–,–,–,–,No,0,1.747,–,–,0.2453,–,–,no,1200,1810,1640,Interference
O=C(O)c1ccc(C2Nc3c(Br)cccc3C3C=CCC32)cc1 (centres unmarked) [FIMM022230],5.4,13.8,14.3,13.8,~5.73,12000,1550,No,68,0.2613,~4,−1.93,0.08458,approximately 8 fold,−3.56,no,–,1860,–,–
